Experimental data reported in patent US11434205B2, “Substituted imidazole carboxylate derivatives and the use thereof” (priority 2018, dated 2022).
Read-outs that look alike come from different tables or passages of the source.

Columns and labels:
rats [1] = assay: Loss of righting reflexes (LORR) assay in rats, ED50 by up and down method; assay type: in vivo, rat; settings: tail vein, class symbols; for ED50: Rattus norvegicus
Procedure, shortened: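 Adult male Sprague-Dawley rats (250-300 g) dosed i.v. via tail vein at 0.1 mL/s. Anesthesia scored as loss of righting reflex lasting >30 s; ED50 derived by up-and-down method.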

rats [2] = test system: rats
Procedure: Adult male Sprague-Dawley rats (250-300 g) were selected for the experiment. […] The anesthesia effects of the compounds were assessed in rats using a LORR assay and a period >30 s was considered as an indicator of general anesthesia. Then the up and down method was used to determine 50% effective dose (ED50). The drugs were administered through the tail vein of rats in a volume of 0.6 mL and at a rate of 0.1 mL/s.

rats [3] = assay: Pharmacological characteristics at equivalent doses (2×ED50) in rats; settings: 2×ED50, tail vein; for Adverse reactions: Red urine (incidence): DMSO solution (DMSO alone 10/10); for Onset time: time of LORR; for Adverse reactions: Tremor (incidence): animals affected/animals
Procedure, shortened: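 Adult male Sprague-Dawley rats (250-300 g, n=8) received each drug at twice its ED50 via tail vein (0.6 mL at 0.1 mL/s). Onset of anesthesia taken as time to LORR.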

[4] = test system: secretion of corticosterone, H295R cell line; assay: cells; assay type: cell-based; settings: for EC50: read-out: EC50 (Corticosterone)
Procedure: (§1) The Effects of the Compounds on Adrenocortical Function In Vitro Test
(§2) Then secretion of the cortisol and corticosterone in the supernatant, was measured using HPLC-MS/MS method to determine whether the compounds of the present invention had adrenotoxic potential.

[5] = test system: secretion of cortisol, H295R cell line; assay: cells; assay type: cell-based; settings: for EC50: read-out: EC50 (Cortisol)
Procedure: as §1, §2

rats [6] = assay type: in vivo, rat; settings: rats of the MAP/HR figures, 2×ED50, tail vein; same value in min
Procedure, shortened: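 Rats implanted with telemetry (left ventricular and abdominal aortic catheters, ECG leads) at least one week before recording; compounds given via lateral tail-vein catheter. MAP and HR sampled every 15 s for 30 min before and after dosing to judge hemodynamic stability.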

rats [7] = test system: rats; remark: listed apart in the source
Procedure: Pharmacological Effects of the Compounds on Continuous Infusion in Rats
Adult male Sprague-Dawley rats with body weight ranging from 250 to 300 gm were selected for continuous infusion test. […] Time to recovery of righting reflex from stopping infusion, and time to fully awake from stopping infusion were recorded.

rats [8] = assay type: in vivo, rat; settings: rats of the MAP/HR figures, 2×ED50, tail vein
[9] = continuous tail vein infusion at 2×MIR, LORR maintained 1 hour, Table C4
[10] = H295R cell line, 0.1-10000 nM, HPLC-MS/MS, Table D3
[11] = continuous tail vein infusion at 2×MIR, LORR maintained 1 hour, Table D4
[12] = H295R cell line, 0.1-10000 nM, HPLC-MS/MS, Table E3
[13] = continuous tail vein infusion at 2×MIR, LORR maintained 1 hour, Table E4

| Structure (SMILES) | ED50 (rats [1]) [mg/kg] | Approximate therapeutic index (rats [2]) | Minimal lethal dose (rats [2]) [mg/kg] | Righting reflex duration (rats [3]) [min] | Adverse reactions: Red urine (incidence) (rats [3]) | Onset time (rats [3]) [min] | Corticosterone as an indicator to determine the presence of inhibition ([4]; H295R, Table C3) | EC50 ([4]; Homo sapiens, NCI-H295R) [nM] | Cortisol as an indicator to determine the presence of inhibition ([5]; H295R, Table C3) | EC50 ([5]; Homo sapiens, NCI-H295R) [nM] | recovery time of the test animals' righting reflex (rats [6]) [min] | Onset time (rats [7]; [9]) [min] | Recovery time after stopping infusion (rats [7]; [9]) [min] | Types and incidence of adverse reactions (rats [7]; [9]) | recovery time of the test animals' righting reflex (rats [8]) [s] | Adverse reactions: Tremor (incidence) (rats [3]) | Corticosterone as an indicator to determine the presence of inhibition [4, 10] | Cortisol as an indicator to determine the presence of inhibition [5, 10] | Onset time (rats [7]; [11]) [min] | Recovery time after stopping infusion (rats [7]; [11]) [min] | further results |
| --- | --- | --- | --- | --- | --- | --- | --- | --- | --- | --- | --- | --- | --- | --- | --- | --- | --- | --- | --- | --- | --- |
| CSCOC(=O)c1cncn1[C@H](C)c1ccccc1 [Compound C26] | 0.5 to 1 | >11 | >6 | 2.11 ± 1.02 | Red urine (8/8) | 0.30 ± 0.09 | 0 | > 10000 | 0 | > 10000 | 2.28 | 2 to 3 | 9 to 13 | Tremor (2/6) | 137 |  |  |  |  |  | Adverse reactions: Muscle twitching (incidence) (rats [3]): Muscle twitching (1/8), |
| CC(=O)CCOC(=O)c1cncn1[C@H](C)c1ccccc1 [Compound C7] | 0.1 to 0.5 | >10 | >4 | 1.68 ± 0.88 | Red urine (8/8) | 0.15 ± 0.06 | 0 | > 1000 | 0 | > 1000 | 1.87 | 3 to 4 | 8 to 14 | Tremor (6/6) | 112 |  |  |  |  |  | Adverse reactions: Muscle twitching (incidence) (rats [3]): Muscle twitching (4/8), |
| CSCCOC(=O)c1cncn1[C@H](C)c1ccccc1 [Compound C27] | 0.5 to 1 | >11 | >9 | 3.06 ± 1.50 | Red urine (8/8) | 0.12 ± 0.07 | 0 | > 1000 | 0 | > 1000 | 3.1 | 3 to 4 | 10 to 11 | Tremor (2/6) | 186 |  |  |  |  |  |  |
| C[C@H](c1ccccc1)n1cncc1C(=O)OC(C)(C)C [Compound C18] | 0.1 to 0.5 | >14 | >5 | 1.96 ± 1.39 | (8/8) | 0.25 ± 0.13 | 0 | > 1000 | 0 | > 1000 | 1.92 | 3 to 4 | 10 to 14 | Tremor (1/6) | 115 | Tremor (5/8), Red urine |  |  |  |  |  |
| CCCC1(OC(=O)c2cncn2[C@H](C)c2ccccc2)COC1 [Compound B19] | 0.5 to 1 | >11 | >20 | 1.99 ± 1.39 | 8/8 | 0.31 ± 0.13 |  | > 10000 |  | > 10000 | 2.08 |  |  |  | 125 | 2/8 |  |  |  |  | Corticosterone as an indicator to determine the presence of inhibition ([4]; H295R, Table B3): 0; Cortisol as an indicator to determine the presence of inhibition ([5]; H295R, Table B3): 0; Recovery time after stopping infusion (rats [7]; after 1 hour infusion at 2×MIR): 12 to 17 min; Adverse reactions: Tremor (incidence) (rats [7]; continuous infusion 2×MIR): Tremor (5/6); Onset time (rats [7]; emulsion, continuous infusion at 2×MIR): 3 to 4 min |
| C#CC(C)OC(=O)c1cncn1[C@H](C)c1ccccc1 (stereo partly shown) [Compound D14] | 0.1 to 0.5 | >13 | >3 | 2.09 ± 1.08 | Red urine (8/8) | 0.24 ± 0.09 |  | > 10000 |  | > 10000 | 3.5 |  |  |  | 210 |  | 0 | 0 | 2 to 3 | 11 to 14 | Types and incidence of adverse reactions (rats [7]; [11]): Tremor (5/6) |
| C=C=CC1(OC(=O)c2cncn2[C@H](C)c2ccccc2)COC1 [Compound D21] | 0.01 to 0.1 | >16 | >1 | 1.93 ± 0.95 | Red urine (8/8) | 0.15 ± 0.05 |  | > 1000 |  | > 1000 | 6.0 |  |  |  | 360 |  | 0 | 0 | 2 to 3 | 8 to 9 | Adverse reactions: Hindlimb rigidity (incidence) (rats [3]): Hindlimb rigidity (2/8),; Types and incidence of adverse reactions (rats [7]; [11]): Tremor (4/6), Myoclonus (1/6) |
| C[C@H](c1ccccc1)n1cnc(F)c1C(=O)OCC1CC1 [Compound E8] |  | >22 | >4 | 1.90 ± 0.82 | (8/8) | 0.38 ± 0.06 |  |  |  |  | 2.00 |  |  |  | 120 |  |  |  |  |  | ED50 (mg/kg) (rats [1]): B (B means that the measured ED50 is in the range of 0.10-0.50 mg/kg (excluding 0.10 mg/kg, including 0.50 mg/kg).); Sedation duration (mg/kg) (rats [3]): 7.12 ± 0.81; Corticosterone as an indicator to determine the presence of inhibition [4, 12]: 0; EC50 [4, 12]: > 100 nM; Cortisol as an indicator to determine the presence of inhibition [5, 12]: 0; EC50 [5, 12]: > 100 nM; Onset time (rats [7]; [13]): 3 to 4 min; Recovery time after stopping infusion (rats [7]; [13]): 12 to 14 min; Types and incidence of adverse reactions (rats [7]; [13]): Tremor (1/6), Tongue stretching (4/6) |
| C#CC(C)(C)OC(=O)c1cncn1[C@H](C)c1ccccc1 [Compound D15] | 0.1 to 0.5 | >10 | >4 | 2.25 ± 0.79 | (7/8) | 0.21 ± 0.10 |  | > 10000 |  | > 10000 | 3.75 |  |  |  | 225 | Tremor (2/8), Red urine | 0 | 0 | 2 to 3 | 10 to 11 | Types and incidence of adverse reactions (rats [7]; [11]): Tremor (3/6) |
